Biological target: T1, recombinant human KLK5 (Homo sapiens, UniProt Q9Y337)
T1 construct: purchased Novoprotein or R&D Systems C415 or 1108-SE
T1 sequence (Q9Y337 23-293): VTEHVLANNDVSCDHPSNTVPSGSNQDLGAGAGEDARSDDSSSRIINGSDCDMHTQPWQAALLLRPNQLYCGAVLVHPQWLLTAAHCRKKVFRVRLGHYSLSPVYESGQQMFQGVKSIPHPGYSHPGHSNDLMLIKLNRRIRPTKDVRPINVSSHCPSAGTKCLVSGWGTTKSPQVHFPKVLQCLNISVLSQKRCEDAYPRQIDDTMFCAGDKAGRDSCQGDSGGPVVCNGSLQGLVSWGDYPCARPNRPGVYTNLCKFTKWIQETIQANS
Test: Kallikrein (KLK) 5 enzymatic assay (Boc-VPR-AMC fluorogenic substrate)
Type: biochemical
Conditions: recombinant human KLK5 0.1 μg/well, Boc-VPR-AMC 100 μM, pH 7.5, room temperature, 1% DMSO; tested a minimum of three times
Procedure, shortened: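 Recombinant human KLK5 (0.1 μg/well) was preincubated with compound at room temperature in 0.1 M NaH2PO4, pH 7.5, 1% DMSO, then started with 100 μM Boc-VPR-AMC. The rate was followed at 380/460 nm, and IC50 came from percent inhibition relative to enzyme alone, with at least three runs.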

SMILES | IC50 [nM]
CC(C)n1nc(COc2ccccc2CC(=O)O)c2cc(-c3cccc(-c4cnc[nH]4)c3)ccc21 [Compound 51c, 2-(2-((5-(3-(1H-imidazol-5-yl)phenyl)-1-isopropyl-1H-indazol-3-yl)methoxy)phenyl)acetic acid] | > 10000
Nc1nccc2c(-c3ccc4c(c3)c(COc3ccccc3CC(=O)O)nn4[C@@H]3CCOC3)cccc12 [Compound 245h, (R)-2-(2-((5-(1-aminoisoquinolin-5-yl)-1-(tetrahydrofuran-3-yl)-1H-indazol-3-yl)methoxy)phenyl)acetic acid] | < 1000
CCOC(=O)N1CC[C@H](n2nc(COc3ccccc3CC(=O)O)c3cc(-c4cccc5c(N)nccc45)ccc32)C1 [Compound 345e, (S)-2-(2-((5-(1-aminoisoquinolin-5-yl)-1-(1-(ethoxycarbonyl)pyrrolidin-3-yl)-1H-indazol-3-yl)methoxy)phenyl)acetic acid] | < 1000
Nc1nccc2c(-c3ccc4nn(CC5CNC5)c(COc5ccccc5CC(=O)O)c4c3)cccc12 [Compound 140b, 2-(2-((5-(1-aminoisoquinolin-5-yl)-2-(azetidin-3-ylmethyl)-2H-indazol-3-yl)methoxy)phenyl)acetic acid] | 1000 to 10000
CC(C)n1nc(COc2ccccc2CC(=O)O)c2cc(-c3ccc4c(c3)C(N)CCO4)ccc21 (stereo not drawn) [Compound 214c, 2-(2-((5-(4-aminochroman-6-yl)-1-isopropyl-1H-indazol-3-yl)methoxy)phenyl)acetic acid] | > 10000
Cc1cccc(OC2CC3(CCCC3)c3ccc(-c4ccc5ccnc(N)c5c4)cc32)c1CC(=O)O (stereo not drawn) [Compound 367b, 2-(2-((5′-(1-aminoisoquinolin-7-yl)-2′,3′-dihydrospiro[cyclopentane-1,1′-inden]-3′-yl)oxy)-6-methylphenyl)acetic acid] | < 1000
CCS(=O)(=O)N1CCC(n2nc(COc3ccccc3CC(=O)O)c3cc(-c4cccc5c(N)nccc45)ccc32)C1 (stereo not drawn) [Compound 313b, 2-(2-((5-(1-aminoisoquinolin-5-yl)-1-(1-(ethylsulfonyl)pyrrolidin-3-yl)-1H-indazol-3-yl)methoxy)phenyl)acetic acid] | < 1000
Cc1cccc(OC2CC3(CCN(C(=O)OCC(C)C)CC3)c3ccc(-c4cccc5c(N)nccc45)cc32)c1CC(=O)O (stereo not drawn) [Compound 451b, 2-(2-((5-(1-aminoisoquinolin-5-yl)-1′-(isobutoxycarbonyl)-2,3-dihydrospiro[indene-1,4′-piperidin]-3-yl)oxy)-6-methylphenyl)acetic acid] | < 1000
Cc1cccc(OCc2nn(C3CCC3)c3ccc(-c4cccc5c(N)nccc45)cc23)c1CC(=O)O [Compound 162b, 2-(2-((5-(1-aminoisoquinolin-5-yl)-1-cyclobutyl-1H-indazol-3-yl)methoxy)-6-methylphenyl)acetic acid] | < 1000
Cc1cccc(OCc2cn(C3CCOC3)c3ncc(-c4cccc5c(N)nccc45)cc23)c1CC(=O)O (stereo not drawn) [Compound 294c, 2-(2-((5-(1-aminoisoquinolin-5-yl)-1-(tetrahydrofuran-3-yl)-1H-pyrrolo[2,3-b]pyridin-3-yl)methoxy)-6-methylphenyl)acetic acid] | < 1000
CC(C)(C)OC(=O)N1CC(Cn2nc3ccc(-c4cccc5c(N)nccc45)cc3c2COc2ccccc2CC(=O)O)C1 [Compound 139f, 2-(2-((5-(1-aminoisoquinolin-5-yl)-2-((1-(tert-butoxycarbonyl)azetidin-3-yl)methyl)-2H-indazol-3-yl)methoxy)phenyl)acetic acid] | < 1000
Nc1nccc2ccc(-c3ccc4c(c3)C(Oc3ccccc3CC(=O)O)CC43CCCCC3)cc12 (stereo not drawn) [Compound 391b, 2-(2-((5′-(1-aminoisoquinolin-7-yl)-2′,3′-dihydrospiro[cyclohexane-1,1′-inden]-3′-yl)oxy)phenyl)acetic acid] | < 1000
COc1ccc(CC(=O)O)c(OCc2nn(C(C)C)c3ccc(-c4cccc(C(=N)N)c4)cc23)c1 [Compound 5e, 2-(2-((5-(3-carbamimidoylphenyl)-1-isopropyl-1H-indazol-3-yl)methoxy)-4-methoxyphenyl)acetic acid] | < 1000
Cc1ccc(CC(=O)O)c(OCc2c3cc(-c4ccc5ccnc(N)c5c4)ccc3nn2C2CCCCC2)c1 [Compound 15d, 2-(2-((5-(1-aminoisoquinolin-7-yl)-2-cyclohexyl-2H-indazol-3-yl)methoxy)-4-methylphenyl)acetic acid] | > 10000
Cc1ccc(OCc2nn(C3CCC3)c3ccc(-c4cccc5c(N)nccc45)cc23)c(CC(=O)O)c1 [Compound 165b, 2-(2-((5-(1-aminoisoquinolin-5-yl)-1-cyclobutyl-1H-indazol-3-yl)methoxy)-5-methylphenyl)acetic acid] | < 1000
Nc1nccc2c(-c3cc(Cl)c4c(c3)C(Oc3ccccc3CC(=O)O)CC4)cccc12 (stereo not drawn) [Compound 258a, 2-(2-((6-(1-aminoisoquinolin-5-yl)-4-chloro-2,3-dihydro-1H-inden-1-yl)oxy)phenyl)acetic acid] | < 1000
Nc1nccc2c(-c3ccc4c(c3)[C@H](Oc3ccccc3CC(=O)O)C[C@H]4N3CCCCC3)cccc12 [Compound 459f, (+)-trans 2-(2-(((1R,3R)-6-(1-aminoisoquinolin-5-yl)-3-(piperidin-1-yl)-2,3-dihydro-1H-inden-1-yl)oxy)phenyl)acetic acid] | < 1000
Nc1nccc2ccc(-c3ccc4c(c3)c(COc3ccccc3CC(=O)O)nn4C3CCOCC3)cc12 [Compound 281g, 2-(2-((5-(1-aminoisoquinolin-7-yl)-1-(tetrahydro-2H-pyran-4-yl)-1H-indazol-3-yl)methoxy)phenyl)acetic acid] | < 1000
Nc1nccc2c(-c3ccc4c(c3)[C@H](Oc3ccccc3CC(=O)O)CC43CCN(CC(=O)O)CC3)cccc12 [Compound 415b, (R)-2-(2-((5-(1-aminoisoquinolin-5-yl)-1′-(carboxymethyl)-2,3-dihydrospiro[indene-1,4′-piperidin]-3-yl)oxy)phenyl)acetic acid] | < 1000
CC(C)COC(=O)N1CC[C@H](n2nc(COc3ccccc3CC(=O)O)c3cc(-c4ccc5ccnc(N)c5c4)ccc32)C1 [Compound 360c, (S)-2-(2-((5-(1-aminoisoquinolin-7-yl)-1-(1-(isobutoxycarbonyl)pyrrolidin-3-yl)-1H-indazol-3-yl)methoxy)phenyl)acetic acid] | < 1000
Nc1nccc2ccc(-c3ccc4c(c3)C(Oc3ccccc3CC(=O)O)CC4)cc12 (stereo not drawn) [Compound 199d, 2-(2-((6-(1-aminoisoquinolin-7-yl)-2,3-dihydro-1H-inden-1-yl)oxy)phenyl)acetic acid] | < 1000
CC(C)n1nc(COc2ccccc2CC(=O)O)c2cc(-c3ccc4nccc(N)c4c3)ccc21 [Compound 25c, 2-(2-((5-(4-aminoquinolin-6-yl)-1-isopropyl-1H-indazol-3-yl)methoxy)phenyl)acetic acid] | 1000 to 10000
CCOC(=O)N1CC[C@H](n2nc(COc3cccc(C)c3CC(=O)O)c3cc(-c4ccc5ccnc(N)c5c4)ccc32)C1 [Compound 343i, (S)-2-(2-((5-(1-aminoisoquinolin-7-yl)-1-(1-(ethoxycarbonyl)pyrrolidin-3-yl)-1H-indazol-3-yl)methoxy)-6-methylphenyl)acetic acid] | < 1000
Cc1cccc(CC(=O)O)c1OCc1nn(C2CCC2)c2ccc(-c3cccc4c(N)nccc34)cc12 [Compound 160b, 2-(2-((5-(1-aminoisoquinolin-5-yl)-1-cyclobutyl-1H-indazol-3-yl)methoxy)-3-methylphenyl)acetic acid] | 1000 to 10000
CC(C)n1nc(COc2ccccc2CC(=O)O)c2cc(-c3cccc4c(N)nccc34)ccc21 [Compound 40b, 2-(2-((5-(1-aminoisoquinolin-5-yl)-1-isopropyl-1H-indazol-3-yl)methoxy)phenyl)acetic acid] | < 1000
COC(=O)N1CCC2(CC1)CC(Oc1cc(OC)ccc1CC(=O)O)c1cc(-c3ccc4ccnc(N)c4c3)ccc12 (stereo not drawn) [Compound 452c, 2-(2-((5-(1-aminoisoquinolin-7-yl)-1′-(methoxycarbonyl)-2,3-dihydrospiro[indene-1,4′-piperidin]-3-yl)oxy)-4-methoxyphenyl)acetic acid] | < 1000
Nc1nccc2c(-c3ccc4nn(C5CN(CCO)C5)c(COc5ccccc5CC(=O)O)c4c3)cccc12 [Compound 123b, 2-(2-((5-(1-aminoisoquinolin-5-yl)-2-(1-(2-hydroxyethyl)azetidin-3-yl)-2H-indazol-3-yl)methoxy)phenyl)acetic acid] | 1000 to 10000
Nc1nccc2ccc(-c3ccc4c(c3)c(COc3ccccc3CC(=O)O)nn4C3CN(CCO)C3)cc12 [Compound 148b, 2-(2-((5-(1-aminoisoquinolin-7-yl)-1-(1-(2-hydroxyethyl)azetidin-3-yl)-1H-indazol-3-yl)methoxy)phenyl)acetic acid] | < 1000
CC(C)n1nc(COc2ccccc2CC(=O)O)c2cc(-c3ccc4nc(N)oc4c3)ccc21 [Compound 105c, 2-(2-((5-(2-aminobenzo[d]oxazol-6-yl)-1-isopropyl-1H-indazol-3-yl)methoxy)phenyl)acetic acid] | > 10000
Nc1nccc2ccc(-c3cc4c(COc5ccccc5CC(=O)O)cccc4o3)cc12 [Compound 231f, 2-(2-((2-(1-aminoisoquinolin-7-yl)benzofuran-4-yl)methoxy)phenyl)acetic acid] | 1000 to 10000
